The text below walks through data of patent publication EP2493892B1, “QUINUCLIDINE COMPOUNDS AS ALPHA-7 NICOTINIC ACETYLCHOLINE RECEPTOR LIGANDS” (Bristol-Myers Squibb Company, priority 2009, dated 2011).

Bounds are passed on as bounds.

The assay deals with T1, α-7 nicotinic ACh receptor ion channels expressed in mammalian HEK 293 cells (Rattus norvegicus, UniProt Q05941).
T1 construct: expressed in transfected cells
In words: Ca2+-sensitive, fluorescence-based assay for α-7 nicotinic acetylcholine receptor channel function in mammalian cells (FLIPR). It counts as cell-based. The note with it: agonist activity, Ca2+ flux, read-out: FLIPR α7 activity rating (EC50). The method, then: • I) α7 Nicotinic Acetycholine Receptor Binding. Membranes were prepared for binding using HEK293 cells stably expressing the rat α7 nicotinic acetycholine receptor (rat α7 nAChR). Cells were homogenized at 4°C in hypotonic lysis buffer consisting of 10 mM Tris (pH 7.4), 5 mM EDTA and protease inhibitors and centrifuged at 32000 xg for 20 minutes. The pellet was washed once in membrane wash buffer consisting of 50 mM Tris (pH 7.4), 1 mM EDTA and protease inhibitors and centrifuged at 32000 xg for 20 minutes. This pellet was then resuspended in assay buffer consisting 50 mM KH2PO4 (pH 7.4 at 25°C), 1 mM EDTA, 0.005 % Triton-X 100 and 0.1% (v/v) Sigma Protease Inhibitor Cocktail. Aliquots were then frozen in dry ice/ethanol and kept at -80°C until the day of the assay. • II) A Ca^2+ -Sensitive, Fluorescence-Based Assay α-7 for Nicotinic Acetylcholine Receptor Channel Function In Mammalian Cells ("FLIPR"). Summary: Lead compounds are evaluated for agonist activity at α-7, α3β4, α4αβ2, and α1β1δ1ε sub-types of nicotinic ACh receptor ion channels expressed in mammalian HEK 293 cells. Agonist potency and efficacy values are determined from kinetic fluorescence Ca^2+ influx measurements made using a 384 well FLIPR (Fluorescence Image Plate Reader). […] The basal fluorescence from the cells is monitored in real time, followed by the acute addition of test compounds. […]
On the technique in general: Calcium flux is commonly read through the fluorescence of an indicator in the cells.

T1 sequence (Q05941 23-502): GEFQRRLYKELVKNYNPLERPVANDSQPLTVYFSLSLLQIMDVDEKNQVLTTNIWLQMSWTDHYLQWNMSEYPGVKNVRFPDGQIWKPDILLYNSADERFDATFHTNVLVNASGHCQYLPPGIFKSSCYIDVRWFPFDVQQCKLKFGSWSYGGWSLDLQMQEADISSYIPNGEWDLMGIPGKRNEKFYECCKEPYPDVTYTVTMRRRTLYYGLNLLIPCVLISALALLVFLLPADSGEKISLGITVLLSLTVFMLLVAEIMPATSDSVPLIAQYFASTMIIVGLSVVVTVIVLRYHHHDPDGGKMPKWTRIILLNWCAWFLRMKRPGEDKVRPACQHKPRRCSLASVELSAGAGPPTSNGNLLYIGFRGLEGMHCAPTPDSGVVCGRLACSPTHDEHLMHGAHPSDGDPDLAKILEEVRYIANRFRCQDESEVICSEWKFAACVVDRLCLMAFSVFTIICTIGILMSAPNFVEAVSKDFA

As to `c1cncc(-c2ccnc(NC3=NC[C@@]4(CN5CCC4CC5)O3)c2)c1` [Example 1, (R)-N-(3,4'-Bipyridin-2'-yl)-4H-1'-azaspiro[oxazole-5,3'-bicyclo[2.2.2]octan]-2-amine], the EC50 (as a rule, the concentration giving half of the maximal effect) was less than 100 nM.
